In assay [1] the target is PAK4 (Homo sapiens, UniProt O96013). Description: Competitive binding assay (phage-displayed kinase vs immobilized staurosporine bait), PAK4. To be noted: PAK Inhibitor Affinity Assay.
Assay [2] has as its target PAK2 (Homo sapiens, UniProt Q13177). Kind of assay: Competitive binding assay (phage-displayed kinase vs immobilized staurosporine bait), PAK2.
Assay [3] addresses PAK7 (Homo sapiens, UniProt Q9P286). Kind of assay: Competitive binding assay (phage-displayed kinase vs immobilized staurosporine bait), PAK7. The conditions noted are these: PAK Inhibitor Affinity Assay.
Assay [4] deals with PAK1 (Homo sapiens, UniProt Q13153). Description: Competitive binding assay (phage-displayed kinase vs immobilized staurosporine bait), PAK1.
PAK1, sequence (Q13153 whole entry): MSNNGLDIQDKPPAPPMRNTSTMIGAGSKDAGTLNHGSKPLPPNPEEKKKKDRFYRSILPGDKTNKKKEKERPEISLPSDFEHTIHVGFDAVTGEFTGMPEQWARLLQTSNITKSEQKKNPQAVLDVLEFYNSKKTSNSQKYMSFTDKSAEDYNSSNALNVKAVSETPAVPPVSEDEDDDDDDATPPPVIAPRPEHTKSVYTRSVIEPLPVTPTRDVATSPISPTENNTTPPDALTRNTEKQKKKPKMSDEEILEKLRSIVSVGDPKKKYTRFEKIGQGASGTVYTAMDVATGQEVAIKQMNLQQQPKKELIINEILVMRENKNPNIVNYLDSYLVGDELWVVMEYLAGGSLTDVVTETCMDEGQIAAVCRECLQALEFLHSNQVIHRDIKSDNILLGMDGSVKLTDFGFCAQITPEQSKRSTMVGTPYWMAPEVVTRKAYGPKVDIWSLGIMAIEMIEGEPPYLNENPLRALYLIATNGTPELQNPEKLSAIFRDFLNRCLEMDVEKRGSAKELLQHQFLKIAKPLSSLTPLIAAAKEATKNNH
Assay [5] addresses PAK6 (Homo sapiens, UniProt Q9NQU5). Description: biochemical. It is filed as binding. To be noted: PAK Inhibitor Affinity Assay.

Where two headings read alike, the source gives them in different places.

PAK2, sequence (Q13177 whole entry): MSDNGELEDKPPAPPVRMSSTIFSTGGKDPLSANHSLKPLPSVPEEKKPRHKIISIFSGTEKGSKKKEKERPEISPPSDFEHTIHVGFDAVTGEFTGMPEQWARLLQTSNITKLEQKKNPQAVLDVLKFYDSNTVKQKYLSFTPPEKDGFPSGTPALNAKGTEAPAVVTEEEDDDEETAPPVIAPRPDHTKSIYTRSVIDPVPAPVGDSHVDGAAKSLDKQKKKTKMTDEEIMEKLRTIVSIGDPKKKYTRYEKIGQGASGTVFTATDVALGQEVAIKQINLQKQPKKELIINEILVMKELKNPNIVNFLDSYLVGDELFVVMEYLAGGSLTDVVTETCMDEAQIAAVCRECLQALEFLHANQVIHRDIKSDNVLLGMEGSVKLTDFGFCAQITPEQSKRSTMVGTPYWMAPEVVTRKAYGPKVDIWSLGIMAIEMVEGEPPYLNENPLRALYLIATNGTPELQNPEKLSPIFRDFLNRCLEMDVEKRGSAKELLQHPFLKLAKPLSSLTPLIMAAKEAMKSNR
PAK6, sequence (Q9NQU5 whole entry): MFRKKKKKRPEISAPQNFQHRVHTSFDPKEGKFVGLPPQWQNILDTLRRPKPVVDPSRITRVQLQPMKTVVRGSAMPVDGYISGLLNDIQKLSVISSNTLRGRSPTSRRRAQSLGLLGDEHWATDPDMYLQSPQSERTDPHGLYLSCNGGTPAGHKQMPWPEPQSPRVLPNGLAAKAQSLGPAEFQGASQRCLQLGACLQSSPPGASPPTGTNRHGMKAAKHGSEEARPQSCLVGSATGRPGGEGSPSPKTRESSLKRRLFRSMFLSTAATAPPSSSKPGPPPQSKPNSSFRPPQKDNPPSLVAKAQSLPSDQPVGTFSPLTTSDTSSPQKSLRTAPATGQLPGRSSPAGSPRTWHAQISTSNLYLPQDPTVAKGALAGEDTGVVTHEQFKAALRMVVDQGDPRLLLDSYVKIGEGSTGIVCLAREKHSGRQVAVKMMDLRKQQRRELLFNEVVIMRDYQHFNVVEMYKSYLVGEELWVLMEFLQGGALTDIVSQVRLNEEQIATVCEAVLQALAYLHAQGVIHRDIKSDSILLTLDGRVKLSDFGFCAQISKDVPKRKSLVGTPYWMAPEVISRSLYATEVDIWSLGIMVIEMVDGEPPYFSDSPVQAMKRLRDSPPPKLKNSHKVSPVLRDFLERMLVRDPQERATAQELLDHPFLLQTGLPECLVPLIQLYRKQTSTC
PAK4, sequence (O96013 whole entry): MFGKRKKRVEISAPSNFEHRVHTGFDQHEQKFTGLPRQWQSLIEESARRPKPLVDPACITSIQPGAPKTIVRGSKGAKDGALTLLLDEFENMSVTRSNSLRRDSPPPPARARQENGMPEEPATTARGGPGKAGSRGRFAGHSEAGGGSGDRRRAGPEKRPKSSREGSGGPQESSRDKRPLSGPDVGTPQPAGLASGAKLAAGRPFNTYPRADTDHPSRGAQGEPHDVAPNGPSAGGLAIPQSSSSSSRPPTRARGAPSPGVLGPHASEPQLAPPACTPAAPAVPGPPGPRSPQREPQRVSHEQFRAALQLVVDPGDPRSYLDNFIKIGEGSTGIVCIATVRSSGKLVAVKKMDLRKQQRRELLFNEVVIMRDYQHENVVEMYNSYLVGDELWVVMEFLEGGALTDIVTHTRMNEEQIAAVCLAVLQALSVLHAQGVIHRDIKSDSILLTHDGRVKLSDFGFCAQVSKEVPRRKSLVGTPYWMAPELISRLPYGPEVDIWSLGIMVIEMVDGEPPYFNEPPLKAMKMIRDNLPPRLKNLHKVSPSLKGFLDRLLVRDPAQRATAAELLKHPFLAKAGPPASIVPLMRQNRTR
PAK7, sequence (Q9P286 whole entry): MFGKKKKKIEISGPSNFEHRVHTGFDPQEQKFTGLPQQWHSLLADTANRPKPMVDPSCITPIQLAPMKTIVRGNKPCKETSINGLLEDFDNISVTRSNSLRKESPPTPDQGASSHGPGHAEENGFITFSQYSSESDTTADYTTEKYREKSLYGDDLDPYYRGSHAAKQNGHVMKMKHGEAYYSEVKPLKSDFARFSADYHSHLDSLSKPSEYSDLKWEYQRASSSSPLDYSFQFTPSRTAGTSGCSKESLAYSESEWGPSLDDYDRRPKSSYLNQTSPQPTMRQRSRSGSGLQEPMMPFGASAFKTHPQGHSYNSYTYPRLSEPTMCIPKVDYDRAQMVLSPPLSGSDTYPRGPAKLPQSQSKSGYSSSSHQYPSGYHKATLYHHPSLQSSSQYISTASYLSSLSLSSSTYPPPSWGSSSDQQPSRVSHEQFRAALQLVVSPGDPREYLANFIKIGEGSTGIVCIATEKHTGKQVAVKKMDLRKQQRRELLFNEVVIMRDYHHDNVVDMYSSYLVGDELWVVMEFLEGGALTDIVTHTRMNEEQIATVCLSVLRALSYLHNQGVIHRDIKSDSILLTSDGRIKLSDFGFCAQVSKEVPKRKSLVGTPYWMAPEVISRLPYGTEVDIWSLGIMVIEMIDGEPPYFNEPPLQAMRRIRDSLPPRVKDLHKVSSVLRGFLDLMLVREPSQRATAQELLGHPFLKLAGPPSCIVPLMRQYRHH

On to `CCOc1cc2ncc(C#N)c(Nc3ccc(F)c(Cl)c3)c2cc1NC(=O)/C=C/CN(C)C` [EKB-569], for which the Kd was no less than 10 µM in assay [1]; no less than 10 µM in assay [2] (PAK Inhibitor Affinity Assay, read-out: Kd PAK2); no less than 10 µM in assay [3]; less than 5 µM in assay [4] (PAK Inhibitor Affinity Assay, read-out: Kd PAK1); no less than 10 µM in assay [5].
For the compound `Nc1nc(Nc2ccc(S(N)(=O)=O)cc2)nn1C(=O)c1c(F)cccc1F` [JNJ-7706621], the Kd was no less than 10 µM in assay [2], no less than 10 µM in assay [4] and less than 5 µM in assay [5].

One may read the Kd as the concentration at which binding is half-saturated.

(Values after patent publication US20100317715A1, “METHODS FOR TREATING NEUROPSYCHIATRIC CONDITIONS” (priority 2007, published 2010).)
